Laboratory results published in US20260317277A1, “ARYLALKYLAMINE COMPOUND, AND PREPARATION METHOD THEREFOR AND USE THEREOF” (RENHE YIKANG GROUP CO., LTD., priority 2024, published 2026).

What was measured:
[1] = Pharmacokinetic study in SD rats; type: in vivo, Male Sprague-Dawley (SD) rats; conditions: male SD rats, oral gavage; Evocalcet = 100
Protocol: Animal Information: Male Sprague-Dawley (SD) rats, aged 7-8 weeks, were used. Each group consisted of 3-5 rats.
Dosing Information: The rats were fasted for more than 12 hours prior to administration. A single dose was administered via oral gavage.
Blood Sampling Time Points: Blood samples were collected from the tail vein before administration and at 0.25, 0.5, 1, 2, 4, 6, 8, and 24 hours post-administration. A volume of 100 μL of blood was collected at each time point.
Sample Processing and Storage: The blood samples were transferred into 1.5 mL microcentrifuge tubes, with 50 μL per tube (two tubes per sample). Centrifugation was completed within 2 hours. Whole blood samples were kept on ice prior to centrifugation. Centrifugation was performed at 4000 rpm, 2-8° C., for 10 minutes. After collecting the supernatant, it was stored at −80° C. or below if not analyzed immediately.
Column: An InfinityLab Poroshell 120 SB-C18 column (2.1×100 mm, 2.7 μm) was used. Column Temperature: The temperature was maintained at 30° C. Flow Rate: The flow rate was set at 0.3 mL/min. Run Time: The total run time was 9.5 minutes. Post-run Time: A post-run time of 2 minutes was applied. Injection Volume: An injection volume of 2 μL was used. Mobile Phase: A mixture of methanol and 0.1% formic acid was employed as the mobile phase. Gradient Elution: Gradient elution was performed according to the table below.
b) the Mass Spectrometry Conditions were Set as Follows: […]
Preparation of Standard Solutions: Appropriate volumes of Evocalcet, Compound 2, and Compound 3 stock solutions were precisely measured and diluted with 50% methanol to prepare standard solutions with concentrations of 80, 200, 1000, 5000, 10000, 20000, and 40000 ng/mL.
Preparation of Internal Standard (Clenbuterol Hydrochloride) Solution: 10 mg of clenbuterol hydrochloride was accurately weighed and transferred into a 10 mL volumetric flask. […] An appropriate volume of the stock solution was precisely measured and diluted with methanol to prepare a 2000 ng/mL internal standard working solution. […]

[2] = Review Report on Evocalcet Tablets 1 mg and 2 mg, March 2018; cited from earlier work

In the case of C[C@@H](N[C@H]1CCN(c2ccc(CC(=O)O)cc2F)C1)c1cccc2ccccc12 [Compound 2, 2-(3-fluoro-4-((S)-3-(((R)-1-(naphthalen-1-yl)ethyl)amino)pyrrolidin-1-yl)phenyl)acetic Acid], the “Relative bioavailability (%)” value [1] is reported as 136%.
For C[C@@H](N[C@H]1CCN(c2ccc(CC(=O)O)cc2)C1)c1cccc2ccccc12 [Evocalcet], the “Relative bioavailability (%)” value [1] is listed as 100% and the adverse reactions [2] is listed as “hypocalcemia, vomiting, nausea, chills, QT prolongation, mood disturbances, cardiac arrhythmia, hypotension, and cramps”.
With Cc1cc(CC(=O)O)ccc1N1CC[C@H](N[C@H](C)c2cccc3ccccc23)C1 [Compound 3, 2-(3-methyl-4-((S)-3-(((R)-1-(naphthalen-1-yl)ethyl)amino)pyrrolidin-1-yl)phenyl)acetic Acid] the “Relative bioavailability (%)” value [1] was 144%.
